Measured values: patent US20170066795A1, “SOLID PRODRUG FORMS OF 2'-CHLORO-2'-METHYL URIDINE FOR HCV” (IDENIX PHARMACEUTICALS LLC, priority 2014, published 2017)
Read-outs that look alike come from different tables or passages of the source.

How the values were obtained:
[1] = Example 4 Group A: safety (adverse events) in healthy volunteers; format: in vivo, human
Protocol: (§1) Six sequential cohorts of 8 health volunteers per cohort were randomized via a computer-generated randomization list in the ratio of 2:6. Two of the healthy volunteers (HV) received placebo and the remaining six received Compound I under fasted conditions at single ascending doses of 10, 25, 50, 150, or 300 mg, or multiple doses at 300 mg QD for 7 days (below, “Group A”).
(§2) For Groups A and B, dosing occurred between approximately 08:00 AM and 10:00 AM on each dosing day. Dosing was fasted for all subjects in Groups A and B. For fasted dosing, subjects observed a fasting period of approximately 10 hours prior to each dose and for an additional 4 hours post-dose.
Safety measurements included clinical history, routine laboratory evaluation, physical examination, 12-lead ECG, vital signs, adverse event (AE) assessment.

[2] = Example 4 Group A: plasma pharmacokinetics in healthy volunteers (LC/MS/MS); conditions: human, in vivo; for AUC(0-inf) / Cmax / half-life: mean ± SD; for AUC(0-inf): read-out: AUC∞ of Compound I; for Cmax: read-out: Cmax of Compound I; for half-life: read-out: t1/2 of Compound I (converted); for Tmax: median, read-out: Tmax of Compound I
Protocol: as §1
Compound I was provided as size 0, white, hard hydroxypropyl methylcellulose (HPMC) capsules for oral administration at 5 mg, 25 mg, and 50 mg strengths. The same powder blend containing 33.3% weight/weight (w/w) Compound I, a diluent, and a disintegrant is used to fill the capsules for all dose strengths. Matching placebo capsules will also be provided. Storage conditions will be provided on the study drug container label.
as §2
Plasma samples were obtained up to 120 hours after dosing and the levels of Compound I and its Nucleoside metabolite were measured by using validated LC/MS/MS methodology. Plasma pharmacokinetic parameters were obtained by using non-compartmental analysis with parameters reported as mean±standard deviation (SD) except for Tmax where median (min-max) is shown.

[3] = 10 mg, 10 mg single dose, fasted
[4] = 25 mg, 25 mg single dose, fasted
[5] = 50 mg, 50 mg single dose, fasted
[6] = 150 mg, 150 mg single dose, fasted
[7] = 300 mg, 300 mg single dose, fasted

CC(C)OC(=O)[C@@H](C)N[P@@](=O)(OC[C@H]1O[C@@H](n2ccc(=O)[nH]c2=O)[C@](C)(Cl)[C@@H]1O)Oc1ccccc1 [Compound I]
Adverse event: Abdominal discomfort ([1]; 10 mg single dose (n = 6)): 0 n, %
Adverse event: Abnormal feces ([1]; 10 mg single dose (n = 6)): 0 n, %
Adverse event: Constipation ([1]; 10 mg single dose (n = 6)): 0 n, %
Adverse event: Dizziness ([1]; 10 mg single dose (n = 6)): 0 n, %
Adverse event: Dry mouth ([1]; 10 mg single dose (n = 6)): 0 n, %
Adverse event: Dry skin ([1]; 10 mg single dose (n = 6)): 0 n, %
Adverse event: Erythema ([1]; 10 mg single dose (n = 6)): 0 n, %
Adverse event: Flushing ([1]; 10 mg single dose (n = 6)): 0 n, %
Adverse event: Headache ([1]; 10 mg single dose (n = 6)): 0 n, %
Adverse event: Menstruation delayed ([1]; 10 mg single dose (n = 6)): 0 n, %
Adverse event: Musculoskeletal stiffness ([1]; 10 mg single dose (n = 6)): 0 n, %
Adverse event: Nausea ([1]; 10 mg single dose (n = 6)): 0 n, %
Adverse event: Palpitations ([1]; 10 mg single dose (n = 6)): 0 n, %
Adverse event: Pancreatic enzymes increased ([1]; 10 mg single dose (n = 6)): 0 n, %
Adverse event: Procedural nausea ([1]; 10 mg single dose (n = 6)): 0 n, %
Adverse event: Vessel puncture site bruise ([1]; 10 mg single dose (n = 6)): 0 n, %
Adverse event: Vessel puncture site pain ([1]; 10 mg single dose (n = 6)): 0 n, %
Adverse event: Vomiting ([1]; 10 mg single dose (n = 6)): 0 n, %
Subjects with AE ([1]; 10 mg single dose (n = 6)): 0 n, %
Adverse event: Abdominal discomfort ([1]; 25 mg single dose (n = 6)): 0 n, %
Adverse event: Abnormal feces ([1]; 25 mg single dose (n = 6)): 0 n, %
Adverse event: Constipation ([1]; 25 mg single dose (n = 6)): 0 n, %
Adverse event: Dizziness ([1]; 25 mg single dose (n = 6)): 0 n, %
Adverse event: Dry mouth ([1]; 25 mg single dose (n = 6)): 0 n, %
Adverse event: Dry skin ([1]; 25 mg single dose (n = 6)): 0 n, %
Adverse event: Erythema ([1]; 25 mg single dose (n = 6)): 0 n, %
Adverse event: Flushing ([1]; 25 mg single dose (n = 6)): 0 n, %
Adverse event: Headache ([1]; 25 mg single dose (n = 6)): 0 n, %
Adverse event: Menstruation delayed ([1]; 25 mg single dose (n = 6)): 0 n, %
Adverse event: Musculoskeletal stiffness ([1]; 25 mg single dose (n = 6)): 0 n, %
Adverse event: Nausea ([1]; 25 mg single dose (n = 6)): 0 n, %
Adverse event: Palpitations ([1]; 25 mg single dose (n = 6)): 0 n, %
Adverse event: Pancreatic enzymes increased ([1]; 25 mg single dose (n = 6)): 1 (16.7) n, %
Adverse event: Procedural nausea ([1]; 25 mg single dose (n = 6)): 1 (16.7) n, %
Adverse event: Vessel puncture site bruise ([1]; 25 mg single dose (n = 6)): 0 n, %
Adverse event: Vessel puncture site pain ([1]; 25 mg single dose (n = 6)): 0 n, %
Adverse event: Vomiting ([1]; 25 mg single dose (n = 6)): 0 n, %
Subjects with AE ([1]; 25 mg single dose (n = 6)): 2 (33.3) n, %
Adverse event: Abdominal discomfort ([1]; 50 mg single dose (n = 6)): 1 (16.7) n, %
Adverse event: Abnormal feces ([1]; 50 mg single dose (n = 6)): 0 n, %
Adverse event: Constipation ([1]; 50 mg single dose (n = 6)): 0 n, %
Adverse event: Dizziness ([1]; 50 mg single dose (n = 6)): 1 (16.7) n, %
Adverse event: Dry mouth ([1]; 50 mg single dose (n = 6)): 0 n, %
Adverse event: Dry skin ([1]; 50 mg single dose (n = 6)): 0 n, %
Adverse event: Erythema ([1]; 50 mg single dose (n = 6)): 0 n, %
Adverse event: Flushing ([1]; 50 mg single dose (n = 6)): 0 n, %
Adverse event: Headache ([1]; 50 mg single dose (n = 6)): 1 (16.7) n, %
Adverse event: Menstruation delayed ([1]; 50 mg single dose (n = 6)): 0 n, %
Adverse event: Musculoskeletal stiffness ([1]; 50 mg single dose (n = 6)): 0 n, %
Adverse event: Nausea ([1]; 50 mg single dose (n = 6)): 0 n, %
Adverse event: Palpitations ([1]; 50 mg single dose (n = 6)): 0 n, %
Adverse event: Pancreatic enzymes increased ([1]; 50 mg single dose (n = 6)): 0 n, %
Adverse event: Procedural nausea ([1]; 50 mg single dose (n = 6)): 0 n, %
Adverse event: Vessel puncture site bruise ([1]; 50 mg single dose (n = 6)): 0 n, %
Adverse event: Vessel puncture site pain ([1]; 50 mg single dose (n = 6)): 0 n, %
Adverse event: Vomiting ([1]; 50 mg single dose (n = 6)): 0 n, %
Subjects with AE ([1]; 50 mg single dose (n = 6)): 2 (33.3) n, %
Adverse event: Abdominal discomfort ([1]; 150 mg (n = 6)): 1 (16.7) n, %
Adverse event: Abnormal feces ([1]; 150 mg (n = 6)): 2 (33.3) n, %
Adverse event: Constipation ([1]; 150 mg (n = 6)): 0 n, %
Adverse event: Dizziness ([1]; 150 mg (n = 6)): 2 (33.3) n, %
Adverse event: Dry mouth ([1]; 150 mg (n = 6)): 1 (16.7) n, %
Adverse event: Dry skin ([1]; 150 mg (n = 6)): 0 n, %
Adverse event: Erythema ([1]; 150 mg (n = 6)): 1 (16.7) n, %
Adverse event: Flushing ([1]; 150 mg (n = 6)): 1 (16.7) n, %
Adverse event: Headache ([1]; 150 mg (n = 6)): 1 (16.7) n, %
Adverse event: Menstruation delayed ([1]; 150 mg (n = 6)): 0 n, %
Adverse event: Musculoskeletal stiffness ([1]; 150 mg (n = 6)): 0 n, %
Adverse event: Palpitations ([1]; 150 mg (n = 6)): 0 n, %
Adverse event: Pancreatic enzymes increased ([1]; 150 mg (n = 6)): 0 n, %
Adverse event: Procedural nausea ([1]; 150 mg (n = 6)): 0 n, %
Adverse event: Vessel puncture site bruise ([1]; 150 mg (n = 6)): 0 n, %
Adverse event: Vessel puncture site pain ([1]; 150 mg (n = 6)): 0 n, %
Adverse event: Vomiting ([1]; 150 mg (n = 6)): 1 (16.7) n, %
Subjects with AE ([1]; 150 mg (n = 6)): 4 (66.7) n, %
Adverse event: Abdominal discomfort ([1]; 300 mg QD x 7 days (n = 6)): 0 n, %
Adverse event: Abnormal feces ([1]; 300 mg QD x 7 days (n = 6)): 0 n, %
Adverse event: Constipation ([1]; 300 mg QD x 7 days (n = 6)): 0 n, %
Adverse event: Dizziness ([1]; 300 mg QD x 7 days (n = 6)): 0 n, %
Adverse event: Dry mouth ([1]; 300 mg QD x 7 days (n = 6)): 0 n, %
Adverse event: Dry skin ([1]; 300 mg QD x 7 days (n = 6)): 0 n, %
Adverse event: Erythema ([1]; 300 mg QD x 7 days (n = 6)): 0 n, %
Adverse event: Flushing ([1]; 300 mg QD x 7 days (n = 6)): 0 n, %
Adverse event: Headache ([1]; 300 mg QD x 7 days (n = 6)): 0 n, %
Adverse event: Menstruation delayed ([1]; 300 mg QD x 7 days (n = 6)): 1 (16.7) n, %
Adverse event: Musculoskeletal stiffness ([1]; 300 mg QD x 7 days (n = 6)): 0 n, %
Adverse event: Nausea ([1]; 300 mg QD x 7 days (n = 6)): 0 n, %
Adverse event: Palpitations ([1]; 300 mg QD x 7 days (n = 6)): 1 (16.7) n, %
Adverse event: Pancreatic enzymes increased ([1]; 300 mg QD x 7 days (n = 6)): 0 n, %
Adverse event: Procedural nausea ([1]; 300 mg QD x 7 days (n = 6)): 0 n, %
Adverse event: Vessel puncture site bruise ([1]; 300 mg QD x 7 days (n = 6)): 1 (16.7) n, %
Adverse event: Vessel puncture site pain ([1]; 300 mg QD x 7 days (n = 6)): 0 n, %
Adverse event: Vomiting ([1]; 300 mg QD x 7 days (n = 6)): 0 n, %
Subjects with AE ([1]; 300 mg QD x 7 days (n = 6)): 2 (33.3) n, %
Adverse event: Abdominal discomfort ([1]; 300 mg single dose (n = 6)): 0 n, %
Adverse event: Abnormal feces ([1]; 300 mg single dose (n = 6)): 0 n, %
Adverse event: Constipation ([1]; 300 mg single dose (n = 6)): 0 n, %
Adverse event: Dizziness ([1]; 300 mg single dose (n = 6)): 1 (16.7) n, %
Adverse event: Dry mouth ([1]; 300 mg single dose (n = 6)): 0 n, %
Adverse event: Dry skin ([1]; 300 mg single dose (n = 6)): 0 n, %
Adverse event: Erythema ([1]; 300 mg single dose (n = 6)): 0 n, %
Adverse event: Flushing ([1]; 300 mg single dose (n = 6)): 0 n, %
Adverse event: Headache ([1]; 300 mg single dose (n = 6)): 1 (16.7) n, %
Adverse event: Menstruation delayed ([1]; 300 mg single dose (n = 6)): 0 n, %
Adverse event: Musculoskeletal stiffness ([1]; 300 mg single dose (n = 6)): 1 (16.7) n, %
Adverse event: Nausea ([1]; 300 mg single dose (n = 6)): 1 (16.7) n, %
Adverse event: Palpitations ([1]; 300 mg single dose (n = 6)): 0 n, %
Adverse event: Pancreatic enzymes increased ([1]; 300 mg single dose (n = 6)): 0 n, %
Adverse event: Procedural nausea ([1]; 300 mg single dose (n = 6)): 0 n, %
Adverse event: Vessel puncture site bruise ([1]; 300 mg single dose (n = 6)): 1 (16.7) n, %
Adverse event: Vessel puncture site pain ([1]; 300 mg single dose (n = 6)): 0 n, %
Adverse event: Vomiting ([1]; 300 mg single dose (n = 6)): 0 n, %
Subjects with AE ([1]; 300 mg single dose (n = 6)): 3 (50.0) n, %
AUC(0-inf) [2, 3]: 26 ± 7.6 ng·h/mL
Cmax [2, 3]: 17.4 ± 6.64 ng/mL
half-life [2, 3]: 0.87 ± 0.25 h
Tmax [2, 3]: 0.8 h
AUC(0-inf) [2, 4]: 51.2 ± 12.8 ng·h/mL
Cmax [2, 4]: 28.8 ± 13.4 ng/mL
half-life [2, 4]: 0.91 ± 0.26 h
Tmax [2, 4]: 1 h
AUC(0-inf) [2, 5]: 162 ng·h/mL
Cmax [2, 5]: 82.4 ± 61.6 ng/mL
half-life [2, 5]: 1.04 ± 0.34 h
Tmax [2, 5]: 1 h
AUC(0-inf) [2, 6]: 1110 ± 690 ng·h/mL
Cmax [2, 6]: 667 ± 324 ng/mL
half-life [2, 6]: 1.16 ± 0.24 h
Tmax [2, 6]: 1 h
AUC(0-inf) ([2]; 300 mg, 300 mg QD, D1, fasted): 2170 ± 660 ng·h/mL
Cmax ([2]; 300 mg, 300 mg QD, D1, fasted): 1290 ± 333 ng/mL
half-life ([2]; 300 mg, 300 mg QD, D1, fasted): 1.88 ± 0.72 h
Tmax ([2]; 300 mg, 300 mg QD, D1, fasted): 0.8 h
AUC(0-inf) ([2]; 300 mg, 300 mg QD, D7, fasted): 2200 ± 494 ng·h/mL
Cmax ([2]; 300 mg, 300 mg QD, D7, fasted): 1280 ± 238 ng/mL
half-life ([2]; 300 mg, 300 mg QD, D7, fasted): 2.76 ± 1.79 h
Tmax ([2]; 300 mg, 300 mg QD, D7, fasted): 0.5 h
AUC(0-inf) [2, 7]: 1680 ± 725 ng·h/mL
Cmax [2, 7]: 924 ± 441 ng/mL
half-life [2, 7]: 1.19 ± 0.34 h
Tmax [2, 7]: 0.5 h
